As usually defined, the IC50 is the concentration needed to halve the response being measured. Higher therefore signals lower potency.

The values below come from PMC6742641, “Design, synthesis and biological evaluation of a series of CNS penetrant HDAC inhibitors structurally derived from amyloid-β probes” (Scientific Reports, 2019).

Data set [1] in a line: In vivo brain pharmacokinetic study. The conditions noted are these: ICR male mice, IV, 2 mg/kg. Here is the method: The study was approved by the Institutional Animal Care and Use of Committee of Daegu-Gyeongbuk Medical Innovation Foundation (DGMIF) and performed in accordance with protocols approved by the Institutional Animal Care and Use of Committee. […] Brain and plasma samples were collected at 0.5 and 1 h time points. Brain samples were homogenized at a 1:4 ratio of sample weight (g) to PBS volume (mL). Aliquots (20 μL) of brain homogenate were mixed with 180 μL of acetonitrile, vortexed and centrifuged at 15,000 rpm for 5 minutes at 4 °C. The resulting supernatants were used for LC-MS/MS analysis. Mice plasma samples were collected at 0.5 and 1 h time points. 180 μL of acetonitrile was added to 20 μL of plasma samples, vortexed and centrifuged at 15,000 rpm for 5 minutes at 4 °C.

Data set [2] has as its target T1, HDAC3 (Homo sapiens, UniProt O15379).
T1 construct: purchased BPS Biosciences
Kind of data set: HDAC activity assay (fluorimetric, BPS Biosciences). Type of data set: biochemical. Particulars: class I; mean ± SD (n = 2). Here is the method: (§1) HDAC1, 3, 6 and 7 activity assays were performed according to the manufacturer’s protocol (BPS Biosciences). […] The HDAC assay developer was added to the mixture and incubated the plate at rt for 15 min. The fluorescence intensity was measured using a Tecan Infinite F200 Pro plate reader.

In data set [3] the target is T2, HDAC7 (Homo sapiens, UniProt Q8WUI4).
T2 construct: purchased BPS Biosciences
T2 sequence (Q8WUI4 1-952): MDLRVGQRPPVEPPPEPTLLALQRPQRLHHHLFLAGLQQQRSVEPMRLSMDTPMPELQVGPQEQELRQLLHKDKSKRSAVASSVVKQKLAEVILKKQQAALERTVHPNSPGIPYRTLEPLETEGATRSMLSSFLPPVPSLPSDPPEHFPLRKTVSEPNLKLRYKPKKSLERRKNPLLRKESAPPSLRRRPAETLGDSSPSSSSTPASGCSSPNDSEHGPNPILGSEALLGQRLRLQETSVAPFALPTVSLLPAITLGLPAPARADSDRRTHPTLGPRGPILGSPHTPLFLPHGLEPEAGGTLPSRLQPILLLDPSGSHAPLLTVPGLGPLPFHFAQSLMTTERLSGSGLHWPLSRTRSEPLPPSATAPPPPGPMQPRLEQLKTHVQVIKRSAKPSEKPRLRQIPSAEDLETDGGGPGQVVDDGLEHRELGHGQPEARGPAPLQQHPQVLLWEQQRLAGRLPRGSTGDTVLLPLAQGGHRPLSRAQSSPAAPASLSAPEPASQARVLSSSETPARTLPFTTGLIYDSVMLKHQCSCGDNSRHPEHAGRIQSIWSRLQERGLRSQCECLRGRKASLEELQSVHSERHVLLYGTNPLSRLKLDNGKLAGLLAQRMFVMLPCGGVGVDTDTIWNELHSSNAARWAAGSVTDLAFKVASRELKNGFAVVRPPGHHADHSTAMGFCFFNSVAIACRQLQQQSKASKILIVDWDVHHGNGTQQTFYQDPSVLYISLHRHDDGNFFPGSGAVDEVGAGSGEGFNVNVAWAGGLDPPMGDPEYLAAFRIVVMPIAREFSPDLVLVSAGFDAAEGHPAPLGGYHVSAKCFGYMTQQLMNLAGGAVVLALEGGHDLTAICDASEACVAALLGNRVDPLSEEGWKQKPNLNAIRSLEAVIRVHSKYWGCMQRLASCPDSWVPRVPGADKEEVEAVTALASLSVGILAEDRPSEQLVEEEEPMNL
The data set is described as above. Type of data set: biochemical. The conditions noted are these: class IIa in Table 4; mean ± SD (n = 2). Here is the method:
as §1

Read-outs that look alike come from different tables or passages of the source.

T1 sequence (O15379 whole entry): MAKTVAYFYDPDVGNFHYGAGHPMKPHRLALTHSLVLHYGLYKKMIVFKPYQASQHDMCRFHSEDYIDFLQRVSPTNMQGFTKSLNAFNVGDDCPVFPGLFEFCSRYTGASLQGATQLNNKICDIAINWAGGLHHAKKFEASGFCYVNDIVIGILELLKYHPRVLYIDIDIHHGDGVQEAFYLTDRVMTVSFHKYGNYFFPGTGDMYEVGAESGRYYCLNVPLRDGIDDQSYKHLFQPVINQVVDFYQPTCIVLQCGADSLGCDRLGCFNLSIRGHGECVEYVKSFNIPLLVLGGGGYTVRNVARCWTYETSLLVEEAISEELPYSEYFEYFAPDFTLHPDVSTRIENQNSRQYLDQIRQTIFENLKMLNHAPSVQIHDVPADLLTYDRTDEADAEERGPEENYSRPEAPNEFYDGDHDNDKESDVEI
T1 sequence (Q9Y618 395-489 partner limits assumed): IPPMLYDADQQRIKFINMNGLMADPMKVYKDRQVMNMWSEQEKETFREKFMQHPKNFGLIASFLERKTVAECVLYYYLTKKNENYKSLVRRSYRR

`O=C(NO)c1ccc(-c2nc3ccccc3s2)cc1` [Compound 9b]: the “Brain concentration (ng/mL) 0.5 h” value in data set [1] (0.5 h, n = 4) stood at 414.6 ± 88.7 ng/mL. Also, the “Brain concentration (ng/mL) 1 h” value in data set [1] (1 h, n = 4) came to 52.9 ± 1.6 ng/mL. Moreover, in data set [1] (mouse, brain/plasma, 0.5 h, read-out: Brain/plasma ratio 0.5 h), the Kp at 0.5 h came out at 9. In addition, in data set [1] (mouse, brain/plasma, 1 h, read-out: Brain/plasma ratio 1 h), the Kp at 1 h was determined as 7.2. Besides, the concentration at 0.5 h in data set [1] (mouse, brain, 0.5 h, n = 4, read-out: Brain concentration (ng/mL) 0.5 h) stood at 415 ng/mL; in data set [1] (mouse, plasma, 0.5 h, n = 4, read-out: Plasma concentration (ng/mL) 0.5 h), 46 ± 13.9 ng/mL. Also, the concentration at 1 h is 52.9 ng/mL in data set [1] (mouse, brain, 1 h, n = 4, read-out: Brain concentration (ng/mL) 1 h) and 7.3 ± 1 ng/mL in data set [1] (mouse, plasma, 1 h, n = 4, read-out: Plasma concentration (ng/mL) 1 h). Besides, the values for the concentration for half-maximal inhibition (IC50) in data set [2] and in data set [3] were 0.142 ± 0.0457 µM and 3.04 µM, respectively.
